Data on 15 compounds can be found in patent US20250332181A1, “ANTIBIOTIC METHODS AND COMPOSITIONS” (AI BIO DISCOVERY LLC, priority 2024, published 2025).

Assay type in all cases: cell-based
For assay [1], the system named is methicillin-resistant coagulase-negative Staphylococcus sps. (MRCoNS). As to the kind of experiment: Disk diffusion test on MRCoNS. The following applies: for antibacterial activity of the agent by itself: single agent disk, penicillin G 10 μg, cefoxitin 30 μg, Compound C 15 μg. An excerpt:
(§1) Applicants undertook two rounds of studies. The results of the first round are illustrated in FIGS. 1A-9B and discussed in the related text. The results of the second round of studies are illustrated in FIGS. 10-23 and discussed in the related text. When agar plating was required, both rounds of Applicants' studies were undertaken using similar disk diffusion methods on bacteria grown on agar substrates in Petri dishes. These methods conform to those prescribed by the Clinical & Laboratory Standards Institute (https://clsi.org).
(§2) Disk Diffusion tests with beta-lactam antibiotics with and without the beta-lactamase inhibitor of FIG. 1A. Closely spaced disks disclose possible synergistic or inhibitory effects between the antibiotics and the compound of FIG. 1A (labeled in FIGS. 4A-9B as Compound C). The distances between disks show the effectiveness of the possible synergy. […] Each disk contains either the compound of FIG. 1A or an antibiotic (one of FIGS. 3A-3D), or the compound of […] and an antibiotic (one of FIGS. 3A-3D). When a disk with the compound of FIG. 1A is in proximity to a disk with an antibiotic both agents diffuse into the bacterial growth medium, allowing us to observe the area where both agents are present at the same time. These disk diffusion tests were evaluated with the following:
(§3) As noted above, Applicants' studies were undertaken using similar disk diffusion methods on bacteria grown on agar substrates in Petri dishes. These methods conform to those prescribed by the Clinical & Laboratory Standards Institute (https://clsi.org).
A general note: Agar diffusion results depend on both activity and mobility in agar.

The test system of assay [2] is MSSA (methicillin-sensitive Staphylococcus aureus). In words: Disk diffusion test on Staphylococcus aureus (MSSA). The following applies: for action of the antibiotic by itself on the Staphylococcus aureus strain: used either separately or in combination. The text has this:
(§4) Applicants undertook two rounds of studies. […] When agar plating was required, both rounds of Applicants' studies were undertaken using similar disk diffusion methods on bacteria grown on agar substrates in Petri dishes. These methods conform to those prescribed by the Clinical & Laboratory Standards Institute (https://clsi.org). […]

The next assay relates to Acinetobacter baumannii. As to the kind of experiment: Disk diffusion test on Acinetobacter baumannii.
Description: as §4

Another assay relates to Klebsiella pneumoniae. In words: Disk diffusion test on Klebsiella pneumoniae. The note with it: for antibacterial activity of the agent by itself: single agent disk, ceftazidime 30 μg, meropenem 10 μg, Compound C 15 μg.
Description: as §1, §2, §3

A further assay deals with Pseudomonas aeruginosa. In words: Disk diffusion test on Pseudomonas aeruginosa.
Description: as §4

In a further assay the test system is Citrobacter freundii. As to the kind of experiment: Disk diffusion test on Citrobacter freundii.
Description: as §4

The next assay relates to Escherichia coli. As to the kind of experiment: Disk diffusion test on Escherichia coli.
Description: as §4

The mark [3] stands for this setting: in combination with ceftazidime (second round).
[4] abbreviates: in combination with ceftazidime.
[5] abbreviates: in combination with piperacillin.
Where [6] appears, read: in combination with ceftriaxone.
Where [7] appears, read: in combination with meropenem (second round).

“Also recorded” adds a separate entry of the source.

For the compound `CC1(C)S[C@@H]2[C@H](NC(=O)Cc3ccccc3)C(=O)N2[C@H]1C(=O)O` [Penicillin G, penicillin G, reference compound], the “antibacterial activity of the agent by itself” value (shortened to “antibacterial activity”) is given as “no activity by itself” in assay [1] and “no antibacterial activity” in assay [1] (listed as penicillin G). In addition, in assay [2], the “action of the antibiotic by itself on the Staphylococcus aureus strain” value was “completely resistant”.
Consider `CO[C@@]1(NC(=O)Cc2cccs2)C(=O)N2C(C(=O)O)=C(COC(N)=O)CS[C@@H]21` [Cefoxitin, cefoxitin, reference compound], for which the “antibacterial activity” value in assay [1] is given as “active on its own”.
Regarding `CC1(C)S[C@@H]2[C@H](NC(=O)[C@H](N)c3ccc(O)cc3)C(=O)N2[C@H]1C(=O)O` [amoxicillin, reference compound], in assay [2], the “action of the antibiotic by itself on the Staphylococcus aureus strain” value is on record as “completely resistant”.
In the case of `Nc1cc(B(O)O)cc(C(=O)O)c1` [3-Amino-5-carboxylphenylboronic acid], in the assay on Acinetobacter baumannii (in combination with cefepime), the “effectiveness of the combination with antibiotic” value (from here on “effectiveness of the combination”) is reported as “enhanced effectiveness”.
As to `O=C(O)c1ccc(Cl)c(B(O)O)c1` [5-Carboxy-2-chlorophenylboronic acid], the “effectiveness of the combination” value in the assay on Klebsiella pneumoniae (in combination with cefepime), with Klebsiella pneumoniae (setting [3]), in the assay with Acinetobacter baumannii (in combination with cefepime), in the assay with Acinetobacter baumannii (setting [4]), with Pseudomonas aeruginosa (in combination with meropenem) and with Pseudomonas aeruginosa (setting [5]) was “enhanced effectiveness” throughout. Also, in the assay with Citrobacter freundii (in combination with meropenem), the “effectiveness of the combination” value was “partial enhanced effectiveness”.
Turning to `O=C(O)c1cc(B(O)O)ccc1Cl` [5-Borono-2-chlorobenzoic acid], the “effectiveness of the combination” value in the assay on Klebsiella pneumoniae (in combination with cefepime), in the assay on Klebsiella pneumoniae (setting [3]), in the assay with Acinetobacter baumannii (in combination with cefepime), in the assay on Acinetobacter baumannii (setting [4]) and in the assay with Acinetobacter baumannii (in combination with meropenem) was “enhanced effectiveness” throughout.
`OB(O)c1cc(F)cc(F)c1F` [2,3,5-Trifluorophenylboronic acid]: the “effectiveness of the combination” value in the assay on Acinetobacter baumannii (in combination with cefepime), in the assay with Acinetobacter baumannii (setting [4]), in the assay on Acinetobacter baumannii (in combination with meropenem), in the assay on Pseudomonas aeruginosa (in combination with aztreonam), with Pseudomonas aeruginosa (in combination with cefepime) and with Pseudomonas aeruginosa (setting [4]) was “enhanced effectiveness” each time. Besides, the “effectiveness of the combination” value in the assay with Pseudomonas aeruginosa (in combination with meropenem) and in the assay on Pseudomonas aeruginosa (setting [5]) was “enhanced effectiveness” throughout.
On to `C[C@@H](O)[C@H]1C(=O)N2C(C(=O)O)=C(S[C@@H]3CN[C@H](C(=O)N(C)C)C3)[C@H](C)[C@H]12` [Meropenem, meropenem, reference compound], for which the “antibacterial activity” value in the assay on Klebsiella pneumoniae is reported as “by itself IS active”.
Take `CC(C)(O/N=C(\C(=O)N[C@@H]1C(=O)N2C(C(=O)[O-])=C(C[n+]3ccccc3)CS[C@H]12)c1csc(N)n1)C(=O)O` [Ceftazidime, ceftazidime, reference compound]: the “antibacterial activity” value with Klebsiella pneumoniae was “very little antibacterial activity; also recorded: by itself is inactive”.
With `CC1(C)OB(c2ccc(C(=O)O)s2)OC1(C)C` [5-Carboxythiophene-2-boronic acid pinacol ester], the “effectiveness of the combination” value with Klebsiella pneumoniae (setting [3]), in the assay with Klebsiella pneumoniae (setting [6]), with Klebsiella pneumoniae (setting [7]), in the assay with Escherichia coli (in combination with amoxycillin), in the assay on Escherichia coli (setting [4]) and in the assay on Escherichia coli (setting [6]) was “enhanced effectiveness” each time. Besides, the “effectiveness of the combination” value is “enhanced effectiveness” in the assay on Escherichia coli (in combination with meropenem); “enhanced effectiveness” with Acinetobacter baumannii (in combination with cefepime); “enhanced effectiveness” in the assay on Acinetobacter baumannii (setting [4]); “enhanced effectiveness” in the assay with Acinetobacter baumannii (in combination with meropenem); “enhanced effectiveness” with Pseudomonas aeruginosa (in combination with aztreonam); “partial effectiveness” in the assay with Pseudomonas aeruginosa (in combination with cefepime). The “effectiveness of the combination” value (in the assay on Pseudomonas aeruginosa (in combination with cefoperazone); in the assay on Citrobacter freundii (setting [4]); with Citrobacter freundii (setting [6]); in the assay with Citrobacter freundii (in combination with meropenem); in assay [1] (in combination with ampicillin); in assay [1] (in combination with penicillin G (second round))) was “enhanced effectiveness” each time. For the same compound, the “effectiveness of the combination” value in assay [2] (in combination with ampicillin) and in assay [2] (in combination with penicillin G) was “enhanced effectiveness” throughout.
Turning to `O=C(O)c1cccc(B(O)O)c1F` [3-Carboxy-2-fluorophenylboronic acid], the “effectiveness of the combination” value in the assay with Klebsiella pneumoniae (in combination with cefepime), in the assay on Klebsiella pneumoniae (setting [3]), with Klebsiella pneumoniae (setting [7]), in the assay with Acinetobacter baumannii (in combination with cefepime), in the assay with Acinetobacter baumannii (setting [4]) and in the assay on Acinetobacter baumannii (in combination with meropenem) was “enhanced effectiveness” in each case. Also, the “effectiveness of the combination” value in the assay on Pseudomonas aeruginosa (in combination with cefepime), with Pseudomonas aeruginosa (in combination with meropenem), with Pseudomonas aeruginosa (setting [5]) and in the assay with Citrobacter freundii (in combination with meropenem) was “partial effectiveness” throughout.
As to `O=C(O)c1ccc(F)c(B(O)O)c1` [5-Carboxy-2-fluorophenylboronic Acid], the “effectiveness of the combination” value with Klebsiella pneumoniae (in combination with cefepime), with Klebsiella pneumoniae (setting [3]), in the assay on Klebsiella pneumoniae (setting [7]), in the assay with Acinetobacter baumannii (in combination with cefepime), in the assay with Acinetobacter baumannii (setting [4]) and with Acinetobacter baumannii (in combination with meropenem) was “enhanced effectiveness” in each case. Moreover, the figures for the “effectiveness of the combination” value in the assay on Pseudomonas aeruginosa (in combination with meropenem) and with Pseudomonas aeruginosa (setting [5]) were “enhanced effectiveness” and “proved effective”, respectively.
For `O=C(O)c1cc(B(O)O)cc([N+](=O)[O-])c1` [Benzoic acid, 3-borono-5-nitro], the “effectiveness of the combination” value with Acinetobacter baumannii (in combination with cefepime), in the assay with Pseudomonas aeruginosa (in combination with aztreonam) and with Pseudomonas aeruginosa (in combination with cefepime) was “enhanced effectiveness” throughout.
As for `CC1(C)OB(c2cccc(CC(=O)O)c2)OC1(C)C` [Phenylacetic acid-3-boronic acid pinacol ester], the “effectiveness of the combination” value with Acinetobacter baumannii (in combination with cefepime), in the assay with Pseudomonas aeruginosa (in combination with aztreonam), in the assay with Pseudomonas aeruginosa (in combination with cefepime), with Pseudomonas aeruginosa (in combination with meropenem) and in the assay on Pseudomonas aeruginosa (setting [5]) was “enhanced effectiveness” in each case.
Turning to `O=C(O)c1cc(B(O)O)ccc1F` [5-Borono-2-fluorobenzoic acid], the “effectiveness of the combination” value in the assay with Acinetobacter baumannii (in combination with cefepime), in the assay on Acinetobacter baumannii (in combination with meropenem), in the assay with Pseudomonas aeruginosa (in combination with aztreonam), in the assay with Pseudomonas aeruginosa (in combination with cefepime) and with Pseudomonas aeruginosa (setting [5]) was “enhanced effectiveness” throughout.
